Test results: patent US12187709B2 (Genentech, Inc., priority 2021, dated 2025)

Key:
c-Cbl = c-Cbl (Homo sapiens (Human), UniProt P22681); assay: C-Cbl LCK Ub TR-FRET assay (C-cbl Lck HTRF); format: biochemical
Outline: (§1)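 Detection reagents added, brief spin, 20 min RT. IC50 fit normalized to no-LCK (low) and DMSO (high) controls.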

Cbl-b = Cbl-b (Homo sapiens (Human), UniProt Q13191); assay: Cbl-b LCK Ub TR-FRET assay (Cbl-b Lck HTRF); format: biochemical; conditions: for IC50: Cbl-b LCK Ub TR-FRET; for fold-selectivity (Cbl-b over C-cbl) / (fold-selectivity) Cbl-b and C-Cbl Selectivity: ratio C-cbl Lck HTRF IC50 / Cbl-b Lck HTRF IC50
Cbl-b, sequence (Q13191 40-426): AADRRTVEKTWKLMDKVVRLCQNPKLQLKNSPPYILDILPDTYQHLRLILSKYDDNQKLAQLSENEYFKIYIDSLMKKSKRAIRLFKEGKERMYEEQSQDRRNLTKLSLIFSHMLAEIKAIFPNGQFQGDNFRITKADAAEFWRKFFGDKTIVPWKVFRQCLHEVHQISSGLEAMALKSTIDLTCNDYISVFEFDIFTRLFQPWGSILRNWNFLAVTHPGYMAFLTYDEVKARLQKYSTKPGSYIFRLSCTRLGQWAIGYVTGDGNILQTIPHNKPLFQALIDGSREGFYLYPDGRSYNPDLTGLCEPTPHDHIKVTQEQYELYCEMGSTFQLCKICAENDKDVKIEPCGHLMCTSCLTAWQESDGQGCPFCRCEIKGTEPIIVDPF
Outline: as §1

c-Cbl, sequence (P22681 47-435): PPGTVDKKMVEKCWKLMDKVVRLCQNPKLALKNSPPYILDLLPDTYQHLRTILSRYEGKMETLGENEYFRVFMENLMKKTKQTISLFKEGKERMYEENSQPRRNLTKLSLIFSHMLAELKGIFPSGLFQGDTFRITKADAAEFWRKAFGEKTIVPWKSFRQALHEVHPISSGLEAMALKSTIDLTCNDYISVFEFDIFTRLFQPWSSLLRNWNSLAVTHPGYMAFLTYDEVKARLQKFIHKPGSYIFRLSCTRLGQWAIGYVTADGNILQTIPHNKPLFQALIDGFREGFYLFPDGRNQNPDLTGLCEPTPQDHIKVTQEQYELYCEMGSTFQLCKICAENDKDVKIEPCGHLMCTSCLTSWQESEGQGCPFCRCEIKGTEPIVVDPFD

IC50 (c-Cbl) | IC50 (Cbl-b) | fold-selectivity (Cbl-b over C-cbl) (Cbl-b) | IC50 (Cbl-b; Example 121) | (fold-selectivity) Cbl-b and C-Cbl Selectivity (Cbl-b) | SMILES
20 µM | ≥ 20 µM | 1.0x |  |  | Cn1cnnc1[C@](F)(c1ccccc1)c1cccc(N2Cc3c(Cl)cc(CNC4(C)CCC4)cc3C2=O)c1 (single isomer, unassigned) [Compound 321]
7.9 µM | 3.8 µM | 2.1x |  |  | Cn1cnnc1C(F)(c1cccc(N2Cc3c(cc(CNC4(C)CCC4)cc3C(F)(F)F)C2=O)c1)C1COC1 (single isomer, unassigned) [Compound 151]
0.029 µM | 0.013 µM | 2.2x |  |  | Cn1cnnc1C1(c2cccc(N3Cc4c(cc(CNC5(C)CCC5)cc4C(F)(F)F)C3=O)c2)CC2(CC(=O)C2)C1 [Compound 92, 2-(3-(2-(4-methyl-4H-1,2,4-triazol-3-yl)-6-oxospiro[3.3]heptan-2-yl)phenyl)-6-(((1-methylcyclobutyl)amino)methyl)-4-(trifluoromethyl)isoindolin-1-one]
8.2 µM | 4.5 µM | 1.6x |  |  | Cn1cnnc1[C@](O)(c1cccc(N2Cc3c(cc(CNC4(C)CCC4)cc3C(F)(F)F)C2=O)c1)C1COC1 (single isomer, unassigned) [Compound 144]
3.9 µM |  |  | 0.61 µM | 6.4x | Cn1cnnc1[C@H](c1cccc(N2Cc3c(cc(CNC4(C)CCC4)cc3C(F)F)C2=O)c1)C1CC(F)C1 (stereo partly drawn) [Compound 460, 4-(difluoromethyl)-2-(3-((S)-((1r,3S)-3-fluorocyclobutyl)(4-methyl-4H-1,2,4-triazol-3-yl)methyl)phenyl)-6-(((1-methylcyclobutyl)amino)methyl)isoindolin-1-one]
0.006 µM | 0.0066 µM | (0.91x) |  |  | CCOc1cc([C@]2(c3nncn3C)C[C@H](C)C2)cc(N2Cc3c(cc(CNC4(C)CCC4)cc3C(F)(F)F)C2=O)n1 [Compound 4, 2-(6-ethoxy-4-((1r,3r)-3-methyl-1-(4-methyl-4H-1,2,4-triazol-3-yl)cyclobutyl)pyridin-2-yl)-6-(((1-methylcyclobutyl)amino)methyl)-4-(trifluoromethyl)isoindolin-1-one]
0.033 µM | 0.015 µM | (2.2x) |  |  | Cn1cnnc1[C@]1(c2cccc(N3Cc4c(cc(CNC5(C)CCC5)cc4C(F)(F)F)C3=O)c2)C[C@@](C)(F)C1 [Compound 31, 2-(3-((1r,3r)-3-fluoro-3-methyl-1-(4-methyl-4H-1,2,4-triazol-3-yl)cyclobutyl)phenyl)-6-(((1-methylcyclobutyl)amino)methyl)-4-(trifluoromethyl)isoindolin-1-one]
20 µM | 3.8 µM | (5.3x) |  |  | Cn1cnnc1[C@H](c1cccc(N2Cc3c(cc(CNC4(C)CCC4)cc3C(F)(F)F)C2=O)c1)N1CCC1 (single isomer, unassigned) [Compound 32]
20 µM |  |  | 3 µM | 6.8x | Cn1cnnc1[C@@H](c1cccc(N2Cc3c(cc(CNC4(C)CCC4)cc3C(F)(F)F)C2=O)c1)[C@@H]1CCS(=O)(=O)C1 (single isomer, unassigned) [Compound 438]
20 µM |  |  | 6.3 µM | 3.2x | CC1(NCc2cc3c(c(C(F)(F)F)c2)CN(c2cccc([C@@H](c4nnc[nH]4)C4COC4)c2)C3=O)CCC1 (single isomer, unassigned) [Compound 441]
20 µM | 10 µM | 2.0x |  |  | Cn1cnnc1[C@@](F)(c1ccccc1)c1cccc(N2Cc3c(Cl)cc(CNC4(C)CCC4)cc3C2=O)c1 (single isomer, unassigned) [Compound 322]
0.166 µM | 0.083 µM | (2.0x) |  |  | CO[C@]1(C)C[C@](c2cccc(N3Cc4c(cc(CNC5(C)CCC5)cc4C(F)(F)F)C3=O)c2)(c2nncn2C)C1 [Compound 29, 2-(3-((1s,3s)-3-methoxy-3-methyl-1-(4-methyl-4H-1,2,4-triazol-3-yl)cyclobutyl)phenyl)-6-(((1-methylcyclobutyl)amino)methyl)-4-(trifluoromethyl)isoindolin-1-one]
20 µM |  |  | 5.3 µM | 3.8x | Cn1cnnc1[C@H](c1cccc(N2Cc3c(cc(CNC4(C)CCC4)cc3C(F)(F)F)C2=O)c1)C1(O)CCC1 (single isomer, unassigned) [Compound 428]
20 µM | 13 µM | 1.5x |  |  | Cn1cnnc1[C@@H](c1cccc(N2Cc3c(cc(CNC4(C)CCC4)cc3C(F)(F)F)C2=O)c1)C1CCOCC1 [Compound 290, (R)-2-(3-((4-methyl-4H-1,2,4-triazol-3-yl)(tetrahydro-2H-pyran-4-yl)methyl)phenyl)-6-(((1-methylcyclobutyl)amino)methyl)-4-(trifluoromethyl)isoindolin-1-one]
≥ 20 µM | 5.1 µM | (3.9x) |  |  | CC(C)[C@H]1CN(C)CCN1Cc1cc2c(c(C(F)(F)F)c1)CN(c1cccc([C@H](c3nncn3C)C3COC3)c1)C2=O (single isomer, unassigned) [Compound 11]
≥ 20 µM | 5.1 µM | 3.9x |  |  | CCOC1CC([C@H](c2cccc(N3Cc4c(cc(CNC5(C)CCC5)cc4C(F)(F)F)C3=O)c2)c2nncn2C)C1 (single isomer, unassigned) [Compound 264]
20 µM | ≥ 20 µM | 1.0x |  |  | CC(=O)N(C)[C@@H](c1cccc(N2Cc3c(cc(CNC4(C)CCC4)cc3C(F)(F)F)C2=O)c1)c1nncn1C (single isomer, unassigned) [Compound 400]
20 µM | 6.8 µM | 2.0x |  |  | CC[C@H](NC1(C)CCC1)c1cc2c(c(C(F)(F)F)c1)CN(c1cccc([C@@H](c3nncn3C)C3COC3)c1)C2=O [Compound 315, 2-(3-((S)-(4-methyl-4H-1,2,4-triazol-3-yl)(oxetan-3-yl)methyl)phenyl)-6-((S)-1-((1-methylcyclobutyl)amino)propyl)-4-(trifluoromethyl)isoindolin-1-one]
0.27 µM | 0.18 µM | (1.5x) |  |  | CO[C@H](c1cccc(N2Cc3c(cc(CNC4(C)CCC4)cc3C(F)(F)F)C2=O)c1)c1nncn1C (single isomer, unassigned) [Compound 42]
0.042 µM |  |  | 0.013 µM | 3.2x | Cn1cnnc1[C@@H](c1cccc(N2Cc3c(cc(CN[C@H]4[C@@H]5COC[C@@H]54)cc3C(F)(F)F)C2=O)c1)C1COC1 (single isomer, unassigned) [Compound 472]
20 µM | 5.3 µM | 3.8x |  |  | CC(C)[C@@](O)(c1cccc(N2Cc3c(cc(CNC4(C)CCC4)cc3C(F)(F)F)C2=O)c1)c1nncn1C [Compound 309, (R)-2-(3-(1-hydroxy-2-methyl-1-(4-methyl-4H-1,2,4-triazol-3-yl)propyl)phenyl)-6-(((1-methylcyclobutyl)amino)methyl)-4-(trifluoromethyl)isoindolin-1-one]
18 µM | 7.7 µM | 2.4x |  |  | Cn1cnnc1[C@](F)(c1ccccc1)c1cccc(N2Cc3c(cc(CNC4(C)CCC4)cc3C(F)(F)F)C2=O)c1 (single isomer, unassigned) [Compound 156]
3.6 µM | 3.1 µM | 1.2x |  |  | Cn1cnnc1[C@@H](CC1COC1)c1cccc(N2Cc3c(cc(CNC4(C)CCC4)cc3C(F)(F)F)C2=O)c1 [Compound 244, (S)-2-(3-(1-(4-methyl-4H-1,2,4-triazol-3-yl)-2-(oxetan-3-yl)ethyl)phenyl)-6-(((1-methylcyclobutyl)amino)methyl)-4-(trifluoromethyl)isoindolin-1-one]
20 µM | ≥ 20 µM | 1.0x |  |  | Cn1cnnc1[C@](O)(c1ccccc1)c1cccc(N2Cc3c(cc(CNC4(C)CCC4)cc3C(F)(F)F)C2=O)c1 (single isomer, unassigned) [Compound 154]
6 µM | 3.8 µM | 1.6x |  |  | COc1cc([C@H](c2nncn2C)C2COC2)cc(N2Cc3c(cc(CNC4(C)CCC4)cc3C(F)(F)F)C2=O)c1 (single isomer, unassigned) [Compound 338]
0.012 µM |  |  | 0.0066 µM | 1.8x | Cn1cnnc1[C@@H](c1cccc(N2Cc3c(cc(CNCC4(C)CC4)cc3C(F)(F)F)C2=O)c1)C1COC1 (single isomer, unassigned) [Compound 465]
12 µM | 7.6 µM | 1.5x |  |  | Cn1cnnc1[C@](O)(c1cccc(N2Cc3c(cc(CNC4(C)CCC4)cc3C(F)(F)F)C2=O)c1)C(F)(F)F [Compound 307, (R)-6-(((1-methylcyclobutyl)amino)methyl)-2-(3-(2,2,2-trifluoro-1-hydroxy-1-(4-methyl-4H-1,2,4-triazol-3-yl)ethyl)phenyl)-4-(trifluoromethyl)isoindolin-1-one]
4.5 µM | 1.3 µM | 3.5x |  |  | Cn1cnnc1[C@@H](c1cccc(N2Cc3c(cc(CNC4(C)CCC4)cc3C(F)(F)F)C2=O)c1)C1CC(OCC(F)F)C1 (single isomer, unassigned) [Compound 261]
0.0045 µM | 0.0071 µM | (0.64x) |  |  | CCNc1cc([C@]2(c3nncn3C)C[C@@H](C)C2)cc(N2Cc3c(cc(CNC4(C)CCC4)cc3C(F)(F)F)C2=O)n1 [Compound 5, 2-(6-(ethylamino)-4-((1s,3s)-3-methyl-1-(4-methyl-4H-1,2,4-triazol-3-yl)cyclobutyl)-pyridin-2-yl)-6-(((1-methylcyclobutyl)amino)methyl)-4-(trifluoromethyl)isoindolin-1-one]
